Measurements from patent USRE39707E1, “Camptothecin derivatives” (Catholic Healthcare West, priority 2001, dated 2007).
Read-outs that look alike come from different tables or passages of the source. Marks after values point to notes of the source that are not given here.

Columns and labels:
HCT116 = experiment: Cell colony formation assay, HCT116 cells; format: cell-based, human; conditions: 72 hours drug exposure
Protocol: (§1) This example provides directions for growing cells and testing compounds of the invention for their effect on the growth of the cells. All cells were purchased from DCIDC Tumor Repository, NCI, NIH.
The cells were incubated in a CO2 incubator at 37° C. for 5 hours for attachment to the bottom of Petri dishes. Drugs were made fresh in medium at ten times the final concentration, and then 0.3 ml of this stock solution was added to the 2.7 ml of medium in the dish. The cells were then incubated with drugs for 72 hours at 37° C. At the end of the incubation the drug-containing media were decanted, the dishes were rinsed with 4 ml of Hank's Balance Salt Solution (HBSS), 5 ml of fresh medium was added, and the dishes were returned to the incubator for colony formation. The cell colonies were counted using colony counter after incubation for 7 days for HCT116 cells and PC-3 cells and 8 days for VM46 cells, respectively.

VM46 = experiment: Cell colony formation assay, VM46 cells; format: cell-based; conditions: 72 hours drug exposure
Protocol: as §1
(§2) Four hundred cells (HCT 116, PC-3, NCI/ADR-RES: human breast cancer cells) or five hundred cells (VM46) were plated in 60 mm Petri dishes containing 2.7 ml of medium (modified McCoy's 5a medium) containing 10% fetal bovine serum and 100 units/ml penicillin and […] streptomycin. The cells were incubated in a CO2 incubator at 37° C. for 5 hours for attachment to the bottom of Petri dishes. Drugs were made fresh in medium at ten times the final concentration, and then 0.3 ml of this stock solution was added to the 2.7 ml of medium in the dish. The cells were then incubated with drugs for 72 hours at 37° C. At the end of the incubation the drug-containing media were decanted, the dishes were rinsed with 4 ml of Hank's Balance Salt Solution (HBSS), 5 ml of fresh medium was added, and the dishes were returned to the incubator for colony formation. The cell colonies were counted using colony counter after incubation for 7 days for HCT116 cells and PC-3 cells and 8 days for VM46 cells, respectively.
(§3) Values of ID50 (the drug concentration producing 50% inhibition of colony formation) may be determined for each tested compound. The directions described in this example may be used in other cells, such as DU-145.

PC-3 = experiment: Cell colony formation assay, PC-3 cells; format: cell-based, human; conditions: 72 hours drug exposure
Protocol: as §1, §2, §3

C3H/HeJ mice = system: C3H/HeJ mice
Protocol: This example provides directions for performing in vivo toxicity tests of the compounds of the invention on C3H/HeJ mice.
Acute toxicities of the compounds of this invention are evaluated on C3H/HeJ mice (body weight 18-22 g). The MTD40 (maximum tolerated dose at day 40) values were determined by the standard procedure described by Gad and Chengelis (see, for example, “Acute Toxicology Testing,” 2nd Ed., Shayne O. Gad and Christopher P. Chengelis, pp. 186-195 (Academic Press)). In the consecutive type studies, 2 mice were dosed at low and moderate doses of 40 and 100 mg/kg. If no severe and irreversible toxicity (euthanasia is required) occurs at these doses, a new pair of animals was initiated at 180 mg/kg, which is 1.8 times higher than 100 mg/kg. Sequential dosages (about 3 doses on 3 pairs of animals, i.e. 2 mice for each drug dose) were increased by a factor of 1.8 until severe and irreversible toxicity (euthanasia is required) occurred. Then another pair of animals was initiated at the highest nonlethal dosage, and successive dosages were increased by a factor of 1.15. The result of this exercise was two dosages, one apparently nonlethal and the other lethal if severe and irreversible toxicity occurs and euthanasia is required, separated by a factor of 1.15. Six mice were dosed at each dosage. If no severe and irreversible toxicity occurred at the lower dosage and at least one with severe and irreversible toxicity occurred at the higher dose, then the lower dose was considered to be the MTD. The compounds of this invention were administered to C3H/HeJ mice by intraperitoneal injection. Drug toxicity was evaluated on mice checked daily for 45 days.

[1] = maximum tolerated dose at day 40, C3H/HeJ mice

Row | Compound | In Vitro Efficacy: Survival (%) of HCT116 (HCT116; 10 nM) [%] | In Vitro Efficacy: Survival (%) of HCT116 (HCT116; 100 nM) [%] | In vitro efficacy: Survival (%) of cells line VM46 (VM46; 1 nM) [%] | In vitro efficacy: Survival (%) of cells line VM46 (VM46; 10 nM) [%] | In vitro efficacy: Survival (%) of cells line PC-3 (PC-3; 1 nM) [%] | In vitro efficacy: Survival (%) of cells line PC-3 (PC-3; 5 nM) [%] | In Vitro Efficacy: Survival (%) of HCT116 (HCT116; 1 nM) [%] | In Vivo Toxicity MTD40 (ip, mg/kg) in C3H/Hej Mice (C3H/HeJ mice; [1]) | In Vivo Toxicity MTD40 (ip, mg/kg) in C3H/Hej Mice (C3H/HeJ mice; mouse, in vivo) [mg/kg]
1 | CCc1c2c(nc3ccc(OC(=O)N4CCC(N5CCCCC5)CC4)cc13)-c1cc3c(c(=O)n1C2)COC(=O)[C@]3(O)CC [CPT 11, 7-ethyl-10[4-(1-piperidino)-1-piperidino]carbonyloxy CPT, reference compound] | 100 | 90.52 | – | – | – | – | – | – | –
2 | CC[C@@]1(O)C(=O)OCc2c1cc1n(c2=O)Cc2cc3ccccc3nc2-1 [CPT, (S)-4-ethyl-4-hydroxy-1H-pyrano-[3′,4′:6,7]indolizino[1,2-b]quinoline-3,14(4H,12H)-dione, reference compound] | 73.72 | – | 77.64 | 0 | 93.85 | 33.09 | 100 | <20** mg/kg | –
3 | CCC1(OC(=O)COc2ccc(OC)cc2)C(=O)OCc2c1cc1n(c2=O)Cc2cc3ccccc3nc2-1 (stereo not shown) [Example 000314, Camptothecin-20-O-ester of 4-methoxyphenoxyacetic acid] | – | 0 | – | – | – | – | – | >150 mg/kg | –
4 | CCCCOCC(=O)OC1(CC)C(=O)OCc2c1cc1n(c2=O)Cc2cc3ccccc3nc2-1 (stereo not shown) [Example 000316, Camptothecin-20-O-ester of butyloxyacetic acid] | 0 | 0 | 77.50 | 0 | 85.72 | 54.79 | 100 | <150 mg/kg | –
5 | CCC1(OC(=O)COc2ccc(C(C)C)cc2)C(=O)OCc2c1cc1n(c2=O)Cc2cc3ccccc3nc2-1 (stereo not shown) [Example 000418, Camptothecin-20-O-ester of 4-isopropylphenoxyacetic acid] | 0 | 0 | 79.17 | 0 | 100 | 78.12 | 97.56 | >150 mg/kg | –
6 | CCC1(OC(=O)COc2ccc(Cl)cc2)C(=O)OCc2c1cc1n(c2=O)Cc2cc3ccccc3nc2-1 (stereo not shown) [Example 000517, Camptothecin-20-Oester of 4-chlorophenoxyacetic acid] | 0 | 0 | – | – | – | – | 100 | – | <150
7 | CCC1(OC(=O)COc2ccc(C)cc2)C(=O)OCc2c1cc1n(c2=O)Cc2cc3ccccc3nc2-1 (stereo not shown) [Example 000518, Camptothecin-20-O-ester of 4-methylphenoxyacetic acid] | 0 | 0 | – | – | – | – | 97.31 | <150 mg/kg | –
8 | CCC1(OC(=O)COc2ccc3c(c2)CC[C@@H]2[C@@H]3CC[C@]3(C)C(=O)CC[C@@H]23)C(=O)OCc2c1cc1n(c2=O)Cc2cc3ccccc3nc2-1 (stereo partly shown) [Example 000531, Camptothecin-20-O-ester of estra-1,3,5(10)-trien-17-one-3-oxyacetic acid] | 0 | 0 | – | – | – | – | 81.45 | – | >150
9 | CCC1(OC(=O)COc2c(Cl)cc(F)cc2Cl)C(=O)OCc2c1cc1n(c2=O)Cc2cc3ccccc3nc2-1 (stereo not shown) [Example 000602, Camptothecin-20-O-ester of 2,6-dichloro-4-fluorophenoxyacetic acid] | 0 | 0 | – | – | – | – | 74.00 | >150 mg/kg | –
10 | CCC1(OC(=O)COc2ccc([N+](=O)[O-])c(C(F)(F)F)c2)C(=O)OCc2c1cc1n(c2=O)Cc2cc3ccccc3nc2-1 (stereo not shown) [Example 000605, Camptothecin-20-O-ester of 4-nitro-3-trifuoromethylphenoxyacetic acid] | 0 | 0 | – | – | – | – | 88.00 | >150 mg/kg | –
11 | CC[C@@]1(OC(=O)COc2ccc(C)nc2I)C(=O)OCc2c1cc1n(c2=O)Cc2cc3ccccc3nc2-1 [Example 000616, Camptotheci-20-O-ester of 6-iodo-2-methylpyridine-5-oxyacetic acid] | 0 | 0 | – | – | – | – | 84.85 | >150 mg/kg | –
12 | CCC1(OC(=O)COc2ccc(C(=O)O)cc2)C(=O)OCc2c1cc1n(c2=O)Cc2cc3ccccc3nc2-1 (stereo not shown) [Example 000725, Camptothecin-20-O-ester of 4-carboxyphenoxyacetic acid] | 0 | 0 | – | – | – | – | 100 | >150 mg/kg | –
13 | CC[C@@]1(OC(=O)COc2nc3ccccc3s2)C(=O)OCc2c1cc1n(c2=O)Cc2cc3ccccc3nc2-1 [Example 000727, Camptothecin-20-O-ester of benzothiazole-2-oxyacetic acid] | 0 | 0 | – | – | – | – | 96.81 | – | –
14 | CCC1(OC(=O)COc2ccc(C#N)c(F)c2)C(=O)OCc2c1cc1n(c2=O)Cc2cc3ccccc3nc2-1 (stereo not shown) [Example 001030, Camptothecin-20-O-ester of 4-cyano-3-fluorophenoxyacetic acid] | 0 | – | – | – | – | – | 86.90 | – | –
15 | Camptothecin-20-O-ester of ethylexyacetic acid [Example 000627] | 0 | 0 | – | – | – | – | 70.44 | <150 mg/kg | –
